Experimental findings from patent US20070003987A1, “Screening method for substance binding to merozoite surface protein-1/42” (priority 2003, published 2007) are described below.

In one assay the test system is P. falciparum (FCB-1). Nature of the assay: short-term in vitro invasion assay (newly invaded ring stages counted by microscopy). It is filed as cell-based, Plasmodium falciparum. Here is the method: Asexual blood stages of P. falciparum (FCB-1) were maintained at 37° C. in RPMI 1640/Albumax medium (Gibco) supplemented with 2 mM L-glutamine as previously described (Blackman, 1994 Methods Cell Biol. 45, 213-220). Cultures were gassed with 7% CO2, 5% O2 and 88% N2 and maintained by routine passage in fresh human erythrocytes. Parasites were synchronised by Percoll and sorbitol treatment (Holder & Freeman, 1982 J. Exp. Med. 156, 1528-1538); schizonts were purified by centrifugation over Percoll and then returned to culture in the presence of fresh erythrocytes. After 4 h, during which time released merozoites invaded erythrocytes, the cells were treated with 5% sorbitol for 10 min to lyse the residual schizonts, before returning the parasites to culture.
Compounds were tested for their ability to inhibit invasion in vitro, using two approaches: a short-term assay in which the number of newly invaded erythrocytes was counted using microscopy, and a growth assay measuring uptake of [^3H] hypoxanthine. In the short term-assay (described previously by Blackman et al, 1990 J. Exp. Med. 172, 379-382), compounds were incubated with purified P. falciparum schizonts at ^˜2% parasitaemia and ^˜2% haematocrit in triplicate cultures. After between 6 and 24 h, blood smears were stained with Giemsa's reagent and examined by microscopy. […]

A further assay addresses T1, P. falciparum MSP142 (Plasmodium falciparum, UniProt Q8I0U8).
T1 construct: was used to express a His6-tagged MSP142 protein; His6; made in house; host or cells: E. coli BL21 (DE3)
Description: binding of suramin to MSP1 by fluorimetry. The procedure:
The pETATPf MSP142 plasmid (described by Angov et al, 2003 Mol. Biochem. Parasitol. 128, 195-204) was used to express a His6-tagged MSP142 protein (P. falciparum 3D7 clone, Accession Number Z35327). The DNA was used to transform E. coli BL21 (DE3) cells and then clones were selected on plates of agar containing ampicillin. Cells expressing the modified MSP142 were grown to mid log phase (OD6000.5-0.8) at 37° C., then after the incubation temperature had been reduced to 25° C., the protein expression was induced by addition of 0.1 mM IPTG. After 2 h of further growth the bacterial cells were harvested by centrifugation. The resulting cell paste was resuspended in lysis buffer (10 mM sodium phosphate, 50 mM NaCl, 10 mM imidazole, pH 6.2) and lysed by microfluidization. […]
The intrinsic fluorescence of suramin was used to determine its capacity to bind to the various MSP1-derived proteins. The fluorescence was measured using a Perkin Elmer LS-3B or a Spex Fluoro Max 2 fluorimeter. Suramin was excited at a wavelength of 315 or 330 nm with 2.5 nm resolution, the emission spectra were measured at wavelengths ranging from 350-450 nm. Suramin and the MSP1 proteins were diluted in 20 mM NaH2PO4, 150 mM NaCl at pH 7.2 and analysed at 10 or 20° C. […] The Kd for the suramin-MSP1 binding was determined from three independent experiments. […]

T1 sequence (Q8I0U8 1327-1699): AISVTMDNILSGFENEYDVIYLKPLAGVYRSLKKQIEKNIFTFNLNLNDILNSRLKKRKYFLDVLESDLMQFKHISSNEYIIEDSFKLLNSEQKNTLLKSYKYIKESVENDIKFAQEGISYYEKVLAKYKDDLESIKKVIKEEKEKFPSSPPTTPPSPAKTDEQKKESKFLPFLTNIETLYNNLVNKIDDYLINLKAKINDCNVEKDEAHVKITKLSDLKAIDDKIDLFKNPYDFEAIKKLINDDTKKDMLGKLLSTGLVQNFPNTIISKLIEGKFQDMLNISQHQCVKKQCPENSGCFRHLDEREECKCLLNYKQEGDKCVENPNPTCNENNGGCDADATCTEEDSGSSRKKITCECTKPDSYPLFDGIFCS

As usually defined, the Kd is the equilibrium constant for the complex coming apart. Turning to `Cc1ccc(C(=O)Nc2ccc(S(=O)(=O)O)c3cc(S(=O)(=O)O)cc(S(=O)(=O)O)c23)cc1NC(=O)c1cccc(NC(=O)Nc2cccc(C(=O)Nc3cc(C(=O)Nc4ccc(S(=O)(=O)O)c5cc(S(=O)(=O)O)cc(S(=O)(=O)O)c45)ccc3C)c2)c1` [suramin], in the assay with P. falciparum (FCB-1), the “inhibition of merozoite invasion of erythrocytes (microscopy, Giemsa)” value is reported as “inhibited merozoite invasion of erythrocytes” and the “inhibition of merozoite release from schizonts (microscopy)” value was “did not inhibit merozoite release from schizonts”. Further, on P. falciparum MSP142, the Kd is 220 nM. For the same compound, the “change of suramin emission intensity on binding to MSP142” value at P. falciparum MSP142 (excited at 315 nm) was “pronounced increase in emission intensity”.
